Assay results: ChEMBL document CHEMBL3044610, “Khayanolides, rearranged phragmalin limonoid antifeedants from Khaya senegalensis” (Tetrahedron, 2001)
The source made the active and inactive calls. The rule behind the calls is not given here.

Key:
Assay type in all cases: functional, organism-based
[1] = tested on: Spodoptera littoralis; experiment: Antifeedant activity against third-instar larva of Spodoptera littoralis fed on compound-treated Chinese cabbage leaf at 500 ppm by leaf-disk method
[2] = tested on: Spodoptera littoralis; experiment: Antifeedant activity against third-instar larva of Spodoptera littoralis fed on compound-treated Chinese cabbage leaf at 300 ppm by leaf-disk method
[3] = tested on: Spodoptera littoralis; experiment: Antifeedant activity against third-instar larva of Spodoptera littoralis fed on compound-treated Chinese cabbage leaf at 1000 ppm by leaf-disk method

Structure (SMILES)	Activity [1]	also measured
C=C1[C@@H]2CC[C@@]3(C)[C@H](c4ccoc4)OC(=O)C[C@]13O[C@H]1CC(=O)C(C)(C)[C@H](CC(=O)OC)[C@]12C	Active	–
COC(=O)[C@H](O)[C@H]1[C@@]2(C)C[C@]3(O)[C@H]4[C@@H](O[C@]56CC(=O)O[C@H](c7ccoc7)[C@]5(C)CC[C@H]([C@]13C)[C@]46O)[C@H]2O	Active	–
COC(=O)[C@H](O)[C@H]1[C@]2(C)C[C@]3(O)[C@H](C(=O)[C@H]2O)[C@]24O[C@]25CC(=O)O[C@H](c2ccoc2)[C@]5(C)CC[C@@H]4[C@]13C	–	Activity [2]: Active
CC1(C)C(=O)[C@@H]2C[C@@]34O[C@]2(O)[C@]2(COC(=O)C[C@@H]12)[C@H]3CC[C@]1(C)[C@H]4CC(=O)O[C@H]1c1ccoc1	–	Activity [2]: Active
C=C1[C@@H]2CC[C@@]3(C)[C@H](c4ccoc4)OC(=O)C[C@]13O[C@H]1CC(=O)C(C)(C)[C@H](C(O)C(=O)OC)[C@]12C (some centres not stated)	Active	–
C=C1[C@@H]2CC[C@@]3(C)[C@H](c4ccoc4)OC(=O)C[C@]13O[C@H]1CC(=O)C(C)(C)[C@H](C(OC(C)=O)C(=O)OC)[C@]12C (some centres not stated)	Active	–
COC(=O)[C@H](O)[C@H]1[C@]2(C)C[C@]3(O)[C@@H](C(=O)[C@H]2O)[C@]2(O)C4=CC(=O)O[C@@H](c5ccoc5)[C@]4(C)CC[C@@H]2[C@]13C	–	Activity [3]: Active
